Where “and” joins values, the source holds several entries; their conditions need not be identical. Equal values may be shown once. Entries after “also recorded” stand apart in the source; their conditions may differ.
Tests used:
[1] = Cryo-TEM of remote loaded liposomes (intraliposomal precipitation); format: physicochemical; conditions: formulation F3, drug to lipid ratio 0.1
Description: CryoTEM samples of 3 μL of liposome solution was placed on a lacy carbon 300 mesh copper TEM grid, blotted and plunge frozen in liquid ethane using a FEI Vitrobot Mark IV. Samples were imaged using a FEI Tecnai G2 20 TWIN transmission electron microscope operated at 200 keV in low dose mode with a FEI High-Sensitive (HS) 4 k×4 k Eagle camera.

mTLR7 = molecular target: T1, mTLR7 (Mus musculus, UniProt P58681); experiment: NF-κB induction in HEK-Blue mTLR7 reporter cells; format: cell-based
T1 construct: host or cells: HEK-Blue (HEK293-derived) reporter cells
T1 sequence (P58681 27-1050): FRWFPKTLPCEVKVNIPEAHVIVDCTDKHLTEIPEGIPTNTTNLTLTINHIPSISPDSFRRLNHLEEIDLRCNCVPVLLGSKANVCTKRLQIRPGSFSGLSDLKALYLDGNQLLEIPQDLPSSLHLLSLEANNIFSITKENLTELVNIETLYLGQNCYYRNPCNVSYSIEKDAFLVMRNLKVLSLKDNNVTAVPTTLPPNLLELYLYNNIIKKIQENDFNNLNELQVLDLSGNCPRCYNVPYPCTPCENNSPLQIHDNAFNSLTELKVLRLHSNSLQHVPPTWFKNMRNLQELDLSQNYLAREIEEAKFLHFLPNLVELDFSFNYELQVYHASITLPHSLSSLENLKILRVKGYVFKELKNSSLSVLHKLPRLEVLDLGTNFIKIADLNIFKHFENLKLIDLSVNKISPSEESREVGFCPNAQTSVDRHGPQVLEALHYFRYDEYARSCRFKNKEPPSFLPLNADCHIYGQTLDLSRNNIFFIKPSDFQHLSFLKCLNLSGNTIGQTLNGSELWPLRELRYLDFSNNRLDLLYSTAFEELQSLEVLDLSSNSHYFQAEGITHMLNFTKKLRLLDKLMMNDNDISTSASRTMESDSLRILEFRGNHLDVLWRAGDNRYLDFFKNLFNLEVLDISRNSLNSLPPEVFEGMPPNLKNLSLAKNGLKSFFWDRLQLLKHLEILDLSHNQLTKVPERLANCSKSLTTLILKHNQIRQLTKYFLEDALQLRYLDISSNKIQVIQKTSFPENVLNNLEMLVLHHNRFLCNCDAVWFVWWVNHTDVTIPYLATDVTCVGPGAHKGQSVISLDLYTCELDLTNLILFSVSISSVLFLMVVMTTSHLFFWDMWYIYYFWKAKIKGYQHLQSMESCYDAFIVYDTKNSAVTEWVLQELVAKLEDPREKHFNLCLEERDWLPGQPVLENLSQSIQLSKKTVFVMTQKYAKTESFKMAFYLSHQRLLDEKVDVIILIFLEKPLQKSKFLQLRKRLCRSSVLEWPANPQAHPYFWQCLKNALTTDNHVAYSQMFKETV
From the text: This example describes the general procedure used to assess the compounds' potency to induce NF-κB expression in human embryonic kidney (HEK) cells. The transcription factor NF-κB is expressed upon stimulation of TLR7/8 and is commonly used for quantifying TLR7/8 agonist potencies in reporter cell assays. Conversely, we used HEK-Blue mTLR-7 cells to evaluate the potencies of the synthesized derivatives, as previously reported (Shukla et al, J. Med. Chem. (2010), 53, 4450-4465).
HEK-Blue TLR7 assays were carried out using HEK-Blue™ mTLR7 cells (Invivogen, Toulouse, France, Cat. #hkb-mtlr7). The assays were carried out according to the protocol from Invivogen. TLR expressing cells were cultured in DMEM high glucose (4.5 g/L) supplemented with 10% (v/v) fetal bovine serum (FBS) and 1% (v/v) penicillin-streptomycin (P/S) to 50 U/ml penicillin and […] streptomycin. On the day of the study, the cells were seeded in a 96-well plate (ThermoFisher Scientific, Roskilde, Denmark) with 20 μL imidazoquinoline TLR7/8 agonist solutions per well at varying concentrations by adding 180 μL cell suspension, made by suspending cells to 0.22×10^6 cells per mL in HEK-Blue™ Detection medium (Invivogen, Cat. #hb-det2) added Blasticidin (10 μg/ml) and Zeocin™ (100 μg/ml), leading to a final concentration of 40×10^3 cells per well in triplicates. Cells were incubated with the imidazoquinoline TLR7/8 agonists, formulated in liposomes or dissolved in PBS, at 37° C. with 5% CO2 for 16 h. The response was quantified spectrophotometrically at 655 nm and was normalized to the signal from a blank sample (DMSO dilution) run in parallel.

RAW-Blue cells = experiment: NF-κB induction in RAW-Blue reporter cells (RAW 264.7 macrophages, SEAP); format: cell-based; conditions: for EC50: RAW-Blue, sigmoidal 4PL fitting, 24 h; for Potency in the RAW-Blue cell assay: compared with R848
From the text: This example describes the general procedure used to assess the compounds' potency to induce NF-κB expression in RAW 264.7 macrophages cells that stably express secreted embryonic alkaline phosphatase (SEAP) upon induction of NF-κB. RAW-Blue™ reporter cells are commonly used for quantifying TLR7/8 agonist potencies in reporter cell assays. Conversely, we used RAW-Blue™ cells to evaluate the potencies of the synthesized derivatives, as previously reported^1. ^1 Ryu et al, J. Am. Chem. Soc. (2014), 136, 10823-10825
RAW 264.7 assays were carried out using RAW-Blue™ cells and QUANTI-Blue™ detection solution (Invivogen, Toulouse, France, at. #raw-sp and rep-qbs respectively). The assays carried out according to the protocol from Invivogen. RAW 264.7 macrophages were cultured in DMEM high glucose (4.5 g/L) supplemented with 10% (v/v) FBS, 1% (v/v) P/S, and Normocin™ (100 μg/ml). On the day of the study, the cells were seeded in a 96-well plate (ThermoFisher Scientific, Roskilde, Denmark) with 20 μL TLR7/8 agonist solutions per well at varying concentrations by adding 180 μL cell suspension, made by suspending cells to 0.55×10^6 cells per mL in the prepared cell medium added Zeocin™ (200 μg/ml), leading to a final concentration of 100×10^3 cells per well in triplicates. Cells were incubated with the TLR7/8 agonists, diluted from 10 mM DMSO stocks in PBS, at 37° C. with 5% CO2 for 24 h for SEAP production. 50 μL SEAP containing cell supernatant from each well was added 150 μL QUANTI-Blue™ detection solution and was incubated at 37° C. for 3-6 h. The resulting response was quantified spectrophotometrically at 640 nm and was normalized to the signal from a blank sample (DMSO dilution) run in parallel.
Half maximal effective concentration (EC50) values were determined from sigmoidal 4PL fittings from the resulting dose-response curves in GraphPad Prism.

[2] = Remote loading efficiency of small molecules into liposomes (PD-10 size exclusion, HPLC); format: physicochemical; conditions: for Remote loading efficiency 1 h (%) / Remote loading efficiency 3 h (%): mean (SD), n = 2
Outline: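 A lyophilized small-molecule powder (modified TLR agonist) was combined with liposome formulation at the desired drug/lipid ratio and stirred at elevated temperature. At 1 h and 3 h, 100 μL of mixture plus 900 μL buffer (25 mM HEPES, 10 vol % sucrose, pH 7.4) went onto a PD-10 size exclusion column. Ten 1 mL fractions were collected, and HPLC quantified compound in the liposome fractions as a percentage of the amount applied.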

[3] = formulation F3, drug/lipid ratio 0.10, 1 h
[4] = formulation F3, drug/lipid ratio 0.10, 3 h
[5] = formulation F3, drug/lipid ratio 0.25, 1 h
[6] = formulation F3, drug/lipid ratio 0.25, 3 h

Row | Compound | Intraliposomal precipitation (Cryo-TEM) [1] | TLR7 agonist activity (NF-κB induction) (mTLR7; liposomal, formulation F3) | EC50 (RAW-Blue cells) [µM] | Potency in the RAW-Blue cell assay (RAW-Blue cells) | Remote loading efficiency 1 h (%) [2, 3] | Remote loading efficiency 3 h (%) [2, 4] | Remote loading efficiency 1 h (%) [2, 5] | Remote loading efficiency 3 h (%) [2, 6] | Remote loading efficiency 1 h (%) ([2]; formulation F3, drug/lipid ratio 0.50, 1 h) | Remote loading efficiency 3 h (%) ([2]; formulation F3, drug/lipid ratio 0.50, 3 h) | TLR7 agonist activity (NF-κB induction) (mTLR7; free compounds, 16 h) | Loading efficiency ([2]; formulation F3, drug/lipid ratio 0.1, time not specified (within 3 h)) [%] | Remote loading efficiency 1 h (%) ([2]; formulation F4 (250 mM ammonium sulfate), drug/lipid ratio 0.10, 1 h) | Remote loading efficiency 3 h (%) ([2]; formulation F4 (250 mM ammonium sulfate), drug/lipid ratio 0.10, 3 h) | Remote loading efficiency 1 h (%) ([2]; formulation F4 (250 mM ammonium sulfate), drug/lipid ratio 0.25, 1 h) | Remote loading efficiency 3 h (%) ([2]; formulation F4 (250 mM ammonium sulfate), drug/lipid ratio 0.25, 3 h)
1 | CCCCc1nc2c(N)nc3ccccc3c2n1Cc1ccc(CN)cc1 [MK130, 1-(4-(aminomethyl)benzyl)-2-butyl-1H-imidazo[4,5-c]quinolin-4-amine] | slight precipitation | potencies much higher than R848 | 0.03 | the most potent compounds | 93.8 (5.8) % | 96.7 (1.3) % | 45.9 (1.9) % | 48.9 (2.1) % | 19.7 (0.4) % | 20% and 19.5 (1.1) % | – | – | – | – | – | –
2 | CCCCc1nc2c(N)nc3ccccc3c2n1Cc1ccc(CNC(=O)[C@@H](N)Cc2ccccc2)cc1 [MK138, (S)-2-amino-N-(4-((4-amino-2-butyl-1H-imidazo[4,5-c]quinolin-1-yl)methyl)benzyl)-3-phenylpropanamide] | precipitated to form rod-like crystals | potencies much higher than R848 | 0.04 | greater potencies than R848 | 82.5 (1.2) % and 82.6 (1.2) % | 86% and 86.2 (0.2) % and 86.2 (0.1) % | 5% and 5.1 (0.1) % | 0.5 (0.1) % | – | – | a higher response than both MK130 and R848 at 1 μM; also recorded: only little activity was observed at concentrations <0.32 μM | ≤ 90 | 96.5 (3.3) % | 100% and 100.0 (0.1) % | 93% and 93.0 (5.7) % | 96.5 (0.7) %
